Data on two molecules can be found in paper doi:10.1101/2020.08.16.252940v1 (biorxiv, 2020).

The target in one assay is VDR (Homo sapiens, UniProt P11473). Particulars: antagonist mode; agonist and cell line not told.
The next assay has as its target VDR-LBD (Homo sapiens, UniProt P11473). Description: biochemical.

The IC50 is the concentration needed to halve the response being measured. A low value points to higher potency.

Bounds are passed on as bounds.

Chain of VDR (P11473 whole entry, the tested form may be a part): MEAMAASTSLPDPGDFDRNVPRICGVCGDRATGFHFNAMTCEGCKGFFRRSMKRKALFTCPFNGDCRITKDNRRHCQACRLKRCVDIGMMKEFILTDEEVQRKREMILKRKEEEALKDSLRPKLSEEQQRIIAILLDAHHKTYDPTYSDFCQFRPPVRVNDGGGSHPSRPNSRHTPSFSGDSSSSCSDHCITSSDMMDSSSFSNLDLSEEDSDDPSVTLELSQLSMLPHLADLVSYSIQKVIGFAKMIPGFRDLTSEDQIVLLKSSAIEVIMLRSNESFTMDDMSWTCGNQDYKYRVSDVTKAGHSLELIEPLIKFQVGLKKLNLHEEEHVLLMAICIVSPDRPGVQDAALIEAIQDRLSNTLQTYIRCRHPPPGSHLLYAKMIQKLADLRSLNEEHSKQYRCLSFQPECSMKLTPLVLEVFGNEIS
Chain of VDR-LBD (P11473 118-427 limits assumed): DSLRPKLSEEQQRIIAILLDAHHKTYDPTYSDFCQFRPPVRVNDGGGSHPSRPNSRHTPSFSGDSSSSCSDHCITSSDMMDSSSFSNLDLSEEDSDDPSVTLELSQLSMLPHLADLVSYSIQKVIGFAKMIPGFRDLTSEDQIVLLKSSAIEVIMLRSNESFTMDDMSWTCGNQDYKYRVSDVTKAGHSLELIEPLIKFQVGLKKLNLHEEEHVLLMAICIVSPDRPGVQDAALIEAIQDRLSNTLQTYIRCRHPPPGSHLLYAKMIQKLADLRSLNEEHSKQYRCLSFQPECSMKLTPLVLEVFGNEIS

Take `CC(C)CCC[C@@H](C)[C@H]1CC[C@H]2C3=CC=C4C[C@@H](O)CC[C@]4(C)[C@H]3CC[C@]12C` [7-dehydrocholesterol]: at VDR, the “inhibition only at concentrations above” value is > 100 µM.
Molecule `CC(C)CCC[C@@H](C)[C@H]1CC[C@@H]2[C@]1(C)CC[C@H]1[C@]23C=C[C@]2(C[C@@H](OC(=O)CBr)CC[C@]12C)n1c(=O)n(C)c(=O)n13` [MeTC7] returned an IC50 against VDR-LBD of 1860 nM.
